Data: ChEMBL document CHEMBL5512692, “Colloidal Aggregation Confounds Cell-Based Covid-19 Antiviral Screens” (J Med Chem, 2024)
pEC50, pIC50: −log10 of the molar value. The source made the active and inactive calls. The rule behind the calls is not given here.

Columns and labels:
[1] = Aggregation property of compound in 50 mM KPi buffer at pH 7 assessed as critical aggregation concentration by DLS assay; assay type: physicochemical
[2] = Aggregation property of compound in DMEM media assessed as critical aggregation concentration by DLS assay; assay type: physicochemical
Sus scrofa [3] = organism: Sus scrofa; assay: (§1) Inhibition of porcine heart MDH using oxaloacetic acid as substrate assessed as enzyme recovery by measuring residual activity at approximately IC90 preincubated for 5 mins in presence of triton X-0.01% followed by substrate and NADPH addition and measured for 80 sec by absorbance based analysis relative to control; conditions: time 380.0 sec
[4] = Inhibition of porcine heart MDH using oxaloacetic acid as substrate preincubated for 5 mins followed by substrate and […] addition and measured for 80 sec by absorbance based analysis; parameters: species or system Sus scrofa
[5] = Absorption property of compound in DMEM media at 100 to 200 uM at 500 to 700 nm by luciferase assay; assay type: physicochemical; conditions: dose 100-200 µM
SARS-CoV-2 [6] = assay: Antiviral activity against SARS-CoV-2; assay type: functional, organism-based; conditions: Severe acute respiratory syndrome coronavirus 2
Sus scrofa [7] = organism: Sus scrofa; assay: as §1, with “10 mg/ml BSA” for “triton X-0.01%”, “enzyme” for “substrate and NADPH”, “after 5 mins” for “for 80 sec”; conditions: time 10.0 min
SARS-CoV-2 [8] = assay: Antiviral activity against luciferase independent SARS CoV-2 spike-pseudotyped lentivirus infected in human A549-hACE2-TMPRSS2 cells assessed as inhibition of viral entry by measuring reduction in luciferase activity incubated for 24 hrs by luciferase reporter assay; assay type: functional, organism-based; conditions: Severe acute respiratory syndrome coronavirus 2
[9] = target: Spike glycoprotein (Severe acute respiratory syndrome coronavirus 2) (UniProt P0DTC2); assay: Binding affinity to Alex-fluor-647 labeled SARS-CoV-2 spike protein assessed as protein-colloid complex formation by measuring fluorescence puncta formation incubated for 5 mins in presence of 0.025% Tween-80 by confocal microscopic analysis
Sus scrofa [10] = organism: Sus scrofa; assay: Inhibition of porcine heart MDH using oxaloacetic acid as substrate at approximately IC90 spin-down for 1 hr followed by enzyme addition and measured after 5 mins by absorbance based analysis; conditions: time 65.0 min
SARS-CoV-2 [11] = assay: Antiviral activity against SARS CoV-2 spike-pseudotyped lentivirus infected in human A549-hACE2-TMPRSS2 cells assessed as inhibition of viral entry incubated for 24 hrs in absence of BSA by luciferase reporter assay; assay type: functional, organism-based; conditions: Severe acute respiratory syndrome coronavirus 2, A549-hACE2-TMPRSS2, 24 h
[12] = target: Spike glycoprotein (Severe acute respiratory syndrome coronavirus 2) (UniProt P0DTC2); assay: Binding affinity to Alex-fluor-647 labeled SARS-CoV-2 spike protein assessed as protein-colloid complex formation by measuring fluorescence puncta formation compound preincubated with 10 mg/ml BSA for 5 mins followed by protein addition and further incubated for 5 mins by confocal microscopic analysis
SARS-CoV-2 [13] = assay: Antiviral activity against luciferase independent SARS CoV-2 spike-pseudotyped lentivirus infected in human A549-hACE2-TMPRSS2 cells assessed as inhibition of viral entry at 31.6 to 63.3 uM compound spin-down for 1 hr followed by viral infection and measured after 24 hrs by luciferase reporter assay; assay type: functional, organism-based; conditions: Severe acute respiratory syndrome coronavirus 2, dose 31.6-63.3 µM, time 25.0 hrs
[14] = target: Spike glycoprotein (Severe acute respiratory syndrome coronavirus 2) (UniProt P0DTC2); assay: Binding affinity to Alex-fluor-647 labeled SARS-CoV-2 spike protein assessed as protein-colloid complex formation by measuring fluorescence puncta formation incubated for 5 mins by confocal microscopic analysis
[15] = Cytotoxicity against human A549-hACE2-TMPRSS2 assessed as reduction in cell viability incubated for 24 hrs by MTT assay; assay type: toxicity, cell-based; conditions: a549-hace2-tmprss2, 24 h
SARS-CoV-2 [16] = assay: Antiviral activity against luciferase independent SARS CoV-2 spike-pseudotyped lentivirus infected in human A549-hACE2-TMPRSS2 cells assessed as inhibition of viral entry measured after 24 hrs before centrifugation by luciferase reporter assay; assay type: functional, organism-based; conditions: Severe acute respiratory syndrome coronavirus 2, A549-hACE2-TMPRSS2
SARS-CoV-2 [17] = assay: Antiviral activity against SARS CoV-2 spike-pseudotyped lentivirus infected in human A549-hACE2-TMPRSS2 cells assessed as inhibition of viral entry preincubated with 10 mg/ml BSA for 5 mins followed by viral infection and further incubated for 24 hrs by luciferase reporter assay; assay type: functional, organism-based; conditions: Severe acute respiratory syndrome coronavirus 2, A549-hACE2-TMPRSS2
Bacteria [18] = assay: (§2) Inhibition of Beta-lactamase AmpC (unknown origin) using CENTA as chromogenic substrate assessed as enzyme recovery by measuring residual activity at approximately IC90 preincubated for 5 mins in presence of 10 mg/ml BSA followed by enzyme addition and measured after 5 mins by absorbance based analysis relative to control; conditions: time 10.0 min
Bacteria [19] = assay: as §2, with “of triton X-0.01%” for “of 10 mg/ml BSA”, “by substrate” for “by enzyme”, “measured for 80 sec” for “measured after 5 mins”; conditions: time 380.0 sec
SARS-CoV-2 [20] = assay: Antiviral activity against luciferase independent SARS CoV-2 spike-pseudotyped lentivirus infected in human A549-hACE2-TMPRSS2 cells assessed as inhibition of viral entry compound spin-down for 1 hr followed by viral infection and measured after 24 hrs by luciferase reporter assay; assay type: functional, organism-based; conditions: Severe acute respiratory syndrome coronavirus 2, A549-hACE2-TMPRSS2
[21] = Inhibition of Beta-lactamase AmpC (unknown origin) using CENTA as chromogenic substrate preincubated for 5 mins followed by substrate addition and measured for 80 sec by absorbance based analysis; parameters: species or system Bacteria

| SMILES | CAC [1] [µM] | CAC [2] [µM] | Activity (Sus scrofa [3]) [%] | pIC50 [4] | Activity [5] | pEC50 (SARS-CoV-2 [6]) | Activity (Sus scrofa [7]) [%] | Activity (SARS-CoV-2 [8]) | pEC50 (SARS-CoV-2 [11]) | Activity [15] | also measured |
| --- | --- | --- | --- | --- | --- | --- | --- | --- | --- | --- | --- |
| O=c1cc(-c2ccc(O)c(O)c2)oc2cc(O)cc(O)c12 [LUTEOLIN] | 83 | 28 | 89 | 4.82 | Not Active | 5.00 | 107 | – | – | – | – |
| O=c1c(O)c(-c2ccc(O)c(O)c2)oc2cc(O)cc(O)c12 [QUERCETIN] | 62 | 100 | 61 | 5.48 | Not Active | – | 108 | – | – | – | – |
| CC(C)C(=O)OCC(=O)[C@@]12O[C@H](C3CCCCC3)O[C@@H]1C[C@H]1[C@@H]3CCC4=CC(=O)C=C[C@]4(C)[C@H]3[C@@H](O)C[C@@]12C [CICLESONIDE] | 8.1 | 4.2 | 66.1 | 5.00 | Not Active | 4.69 | 57 | – | – | – | – |
| CCCCCc1cc(O)c(C/C=C(\C)CCC=C(C)C)c(O)c1C(=O)O [CANNABIGEROLIC ACID] | 12 | 162 | 95.7 | 4.54 | Not Active | – | 68 | Active | 5.92 | Toxic | Activity [9]: inactive; inhibition (Sus scrofa [10]): Active; Activity [12]: inactive; Activity (SARS-CoV-2 [13]): Active; Activity [14]: Active |
| O=c1cc(-c2ccc(O)c(-c3c(O)cc(O)c4c(=O)cc(-c5ccc(O)cc5)oc34)c2)oc2cc(O)cc(O)c12 [AMENTOFLAVONE] | 25 | 100 | 93 | 5.21 | – | – | 78 | – | – | – | – |
| CNC(=O)c1cc(Oc2ccc(NC(=O)Nc3ccc(Cl)c(C(F)(F)F)c3)cc2)ccn1 [SORAFENIB] | – | – | – | – | – | – | – | Active | 6.39 | – | pEC50 (SARS-CoV-2 [16]): 6.57; pEC50 (SARS-CoV-2 [17]): 4.68 |
| C=C(C)[C@@H]1CCC(C)=C[C@H]1c1c(O)cc(CCCCC)c(C(=O)O)c1O [CANNABIDIOLIC ACID] | 61 | 14 | 81.3 | 4.33 | Not Active | – | 61 | – | – | Toxic | inhibition (Sus scrofa [10]): Active; Activity (SARS-CoV-2 [13]): Active |
| CC1(C)[C@@H](O[C@H]2O[C@H](C(=O)O)[C@@H](O)[C@H](O)[C@H]2O[C@@H]2O[C@H](C(=O)O)[C@@H](O)[C@H](O)[C@H]2O)CC[C@]2(C)[C@H]3C(=O)C=C4[C@@H]5C[C@@](C)(C(=O)O)CC[C@]5(C)CC[C@@]4(C)[C@]3(C)CC[C@@H]12 [GLYCYRRHIZIN] | 10 | 15 | – | – | Not Active | 2.60 | – | Active | – | – | Activity (Bacteria [18]): 60%; pEC50 (SARS-CoV-2 [16]): 5.59; Activity (Bacteria [19]): 47%; pEC50 (SARS-CoV-2 [20]): 4.34; pIC50 [21]: 4.48 |
| C=C[C@@](C)(/C=C/c1ccc(O)cc1)CCC=C(C)C [BAKUCHIOL] | 6.2 | 2.5 | 111 | 4.92 | Not Active | – | 77 | Active | 5.27 | – | pEC50 (SARS-CoV-2 [17]): 4.29 |
| CC(C)=CCc1c(O)ccc(C(=O)/C=C/c2ccc(O)cc2)c1O [ISOBAVACHALCONE] | 6.1 | 63 | 109 | 4.44 | Not Active | – | 108 | – | – | Toxic | – |
